Experimental findings from publication PMC10623575, “Discovery of Potent and Selective CB2 Agonists Utilizing a Function-Based Computational Screening Protocol” (ACS Chemical Neuroscience, 2023) are described below.

Molecules are shown by their SMILES. Where two headings read alike, the source gives them in different places.

Format in all cases: cell-based
Test [1] deals with T1, CB2 receptor (Homo sapiens, UniProt P34972).
T1 construct: expressed in transfected cells
The experiment in a line: Calcium mobilization assay, antagonist mode (CP55940 challenge), CHO expressing CB2. As to conditions: for SI, selectivity index for the CB2, SI = IC50(CB1)/IC50(CB2): antagonist mode. As for the experimental part:
(§1) Chinese hamster ovarian (CHO) cells collected from the American Type Culture Collection were maintained in Ham’s F-12K (Kaighn’s) supplemented with 100 mg/L streptomycin, 100 mg/L penicillin, and 10% fetal bovine serum (FBS) in a humidified atmosphere of 5% CO2 at 37 °C. CHO cells were co-transfected with plasmids encoding CB1 or CB2 and Gα16 by electroporation. To establish stable cell lines, transfected cells were seeded on 10 cm dishes with 40 μg/mL blasticidin and 1 mg/mL G418 in culture medium after 24 h. The selection medium was substituted once every 3 days until colonies formed. A solitary colony was obtained, propagated, and assessed using a calcium mobilization assay to verify the function and expression of the transfected genes.
(§2) 3 × 10^4 cells/well were employed to seed cells onto 96-well plates, which were subsequently incubated throughout the night. Cells were then treated with 2 μM Fluo-4 AM in HBSS (0.3 mM Na2HPO4, 5.4 mM KCl, 4.2 mM NaHCO3, 0.4 mM KH2PO4, 0.5 mM MgCl2, 1.3 mM CaCl2, 137 mM NaCl, 0.6 mM MgSO4, 250 μM sulfinpyrazone, and 5.6 mM D-glucose, pH 7.4) for 45 min at 37 °C. […] Meanwhile, the change of intracellular calcium was measured at an excitation wavelength of 525 and 485 nm. For antagonist mode, the extra dye was washed out and 50 μL of HBSS with test compounds, DMSO (negative control), or AM630 (positive control) was introduced. […] The change of intracellular calcium was captured at an excitation wavelength of 525 and 485 nm. To be noticed, each experiment has been independently replicated three times, with three repetitions and eight gradients each time.
(§3) The collected data were processed with GraphPad Prism software (GraphPad). […] Means ± SEM were computed utilizing this software. The analyses were evaluated by the Student t test. When the p value is smaller than 0.05, the result is statistically significant.
On the technique in general: A change in cytosolic calcium serves as a functional read-out for many receptors and channels.

In test [2] the target is T2, CB1 receptor (Homo sapiens, UniProt P21554). Briefly: Calcium mobilization assay, agonist mode, CHO expressing CB1 and Gα16. As to conditions: agonist activity, CHO expressing CB1, mean ± SEM; read-out: CB1 EC50. As to the method: as §1
(§4) 3 × 10^4 cells/well were employed to seed cells onto 96-well plates, which were subsequently incubated throughout the night. […] For antagonist mode, the extra dye was washed out and 50 μL of HBSS with test compounds, DMSO (negative control), or AM630 (positive control) was introduced. […] To be noticed, each experiment has been independently replicated three times, with three repetitions and eight gradients each time.
as §3

Test [3] addresses T1, CB2 receptor. Briefly: Calcium mobilization assay, agonist mode, CHO expressing CB2 and Gα16. As to conditions: for SI, selectivity index for the CB2, SI = EC50(CB1)/EC50(CB2): agonist mode. As to the method:
as §1, §4, §3

Test [4] deals with T2, CB1 receptor. The experiment in a line: Calcium mobilization assay, antagonist mode (CP55940 challenge), CHO expressing CB1. The conditions noted are these: antagonist activity, CHO expressing CB1; read-out: CB1 IC50. As for the experimental part:
as §1, §2, §3

[5] abbreviates: agonist activity, CHO expressing CB2, three independent assays, mean ± SEM, read-out: CB2 EC50.
Setting [6] is: single independent experiment, replicate 1, read-out: CB2 agonist(μM) replicate 1.
Where [7] appears, read: single independent experiment, replicate 2, read-out: CB2 agonist(μM) replicate 2.
[8] abbreviates: single independent experiment, replicate 3, read-out: CB2 agonist(μM) replicate3.
Where [9] appears, read: antagonist activity, CHO expressing CB2, three independent assays, mean ± SEM, read-out: CB2 IC50.
The mark [10] stands for this setting: single independent experiment, replicate 1, read-out: CB2 antagonist(μM) replicate 1.
Setting [11] is: single independent experiment, replicate 2, read-out: CB2 antagonist(μM) replicate 2.
The mark [12] stands for this setting: single independent experiment, replicate 3, read-out: CB2 antagonist(μM) replicate3.

T1 sequence (P34972 whole entry): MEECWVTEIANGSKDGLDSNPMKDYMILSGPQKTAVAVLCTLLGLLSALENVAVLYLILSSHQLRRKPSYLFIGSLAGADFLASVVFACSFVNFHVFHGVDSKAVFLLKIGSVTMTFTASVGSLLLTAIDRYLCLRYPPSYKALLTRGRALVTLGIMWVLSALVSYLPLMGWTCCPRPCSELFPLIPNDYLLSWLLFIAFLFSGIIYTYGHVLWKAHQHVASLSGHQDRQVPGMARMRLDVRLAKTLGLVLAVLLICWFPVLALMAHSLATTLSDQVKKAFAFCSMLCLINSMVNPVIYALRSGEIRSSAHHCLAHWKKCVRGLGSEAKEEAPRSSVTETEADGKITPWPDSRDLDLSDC
T2 sequence (P21554 whole entry): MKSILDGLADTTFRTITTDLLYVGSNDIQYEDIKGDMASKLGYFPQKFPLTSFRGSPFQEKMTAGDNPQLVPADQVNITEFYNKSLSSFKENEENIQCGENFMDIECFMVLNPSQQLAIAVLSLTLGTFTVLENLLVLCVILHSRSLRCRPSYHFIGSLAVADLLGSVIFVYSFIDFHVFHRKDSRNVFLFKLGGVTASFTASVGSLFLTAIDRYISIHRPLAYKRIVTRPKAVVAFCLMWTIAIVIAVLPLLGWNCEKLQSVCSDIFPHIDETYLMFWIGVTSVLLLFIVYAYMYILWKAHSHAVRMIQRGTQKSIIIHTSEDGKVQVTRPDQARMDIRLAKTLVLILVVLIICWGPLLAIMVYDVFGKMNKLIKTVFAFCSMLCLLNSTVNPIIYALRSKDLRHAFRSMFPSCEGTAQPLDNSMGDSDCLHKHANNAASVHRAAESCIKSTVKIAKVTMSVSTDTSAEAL

Consider `COc1ccc(C(=O)c2c(C)n(CCN3CCOCC3)c3cc(I)ccc23)cc1` [AM630, reference compound], for which the IC50 is 0.34 ± 0.1 µM in test [1] (CB2 IC50, antagonist activity, CHO expressing CB2, three independent assays, mean ± SEM); 0.153 µM in test [1] (CB2 antagonist(μM) replicate 1, single independent experiment, replicate 1); 0.319 µM in test [1] (CB2 antagonist(μM) replicate 2, single independent experiment, replicate 2); 0.55 µM in test [1] (CB2 antagonist(μM) replicate3, single independent experiment, replicate 3).

As to `CC(C)N1C(=O)SC(=Cc2ccccc2OC(=O)C2CC2)C1=O` [Compound 22, 2-((3-Isopropyl-2,4-dioxothiazolidin-5-ylidene)methyl)phenyl Cyclopropane Carboxylate], the EC50 in test [2] was over 10 µM; in test [3] (setting [5]) it was 4.12 ± 1.31 µM; in test [3] (setting [6]), 2.19 µM; in test [3] (setting [7]), 6.61 µM; in test [3] (setting [8]), 3.56 µM. Moreover, in test [3], the “SI, selectivity index for the CB2, SI = EC50(CB1)/EC50(CB2)” value was over 2.

On to `CC(C)N1C(=O)SC(=Cc2ccccc2OC(=O)C2CCCCCC2)C1=O` [Compound 23, 2-((3-Isopropyl-2,4-dioxothiazolidin-5-ylidene)methyl)phenyl Cycloheptane Carboxylate], for which the EC50 was over 10 µM in test [2]; 0.82 ± 0.41 µM in test [3] (setting [5]); 0.225 µM in test [3] (setting [6]); 0.638 µM in test [3] (setting [7]); 1.6 µM in test [3] (setting [8]). Moreover, the “SI, selectivity index for the CB2, SI = EC50(CB1)/EC50(CB2)” value in test [3] was over 12.

In the case of `CC(C)N1C(=O)SC(=Cc2ccccc2OC(=O)c2ccc(Cl)nc2)C1=O` [Compound 24, 2-((3-Isopropyl-2,4-dioxothiazolidin-5-ylidene)methyl)phenyl 6-Chloronico Tinate], the EC50 in test [2] was over 10 µM; in test [3] (setting [5]), 3.93 ± 1.97 µM; in test [3] (setting [6]), 7.84 µM; in test [3] (setting [7]) it was 2.4 µM; in test [3] (setting [8]), 1.54 µM. Also, the “SI, selectivity index for the CB2, SI = EC50(CB1)/EC50(CB2)” value in test [3] is reported as over 2.

As for `CC(C)N1C(=O)SC(=Cc2cccc(OCc3ccccc3C#N)c2)C1=O` [Compound 25, 2-((3-((3-Isopropyl-2,4-dioxothiazolidin-5-ylidene)methyl)phenoxy)methyl) Benzonitrile], the EC50 in test [2] and in test [3] (setting [5]) was over 10 µM throughout.

For the molecule `CC(C)CN1C(=O)SC(=Cc2cccc(OCc3ccccc3C#N)c2)C1=O` [Compound 26, 2-((3-((3-Isobutyl-2,4-dioxothiazolidin-5-ylidene)methyl)phenoxy)methyl) Benzonitrile], the EC50 in test [2] and in test [3] (setting [5]) was over 10 µM each time.

Turning to `N#Cc1ccccc1COc1cccc(C=C2SC(=O)N(C3CCCC3)C2=O)c1` [Compound 27, 2-((3-((3-Cyclopentyl-2,4-dioxothiazolidin-5-ylidene)methyl)phenoxy)methyl) Benzonitrile], the EC50 in test [2] and in test [3] (setting [5]) was over 10 µM each time.

`COc1ccc(C=C2SC(=O)N(C(C)C)C2=O)cc1OC(=O)c1cccc(Br)c1` [Compound 28, 5-((3-Isopropyl-2,4-dioxothiazolidin-5-ylidene)methyl)-2-methoxyphenyl 3-Bromobenzoate]: the EC50 in test [2] was over 10 µM; in test [3] (setting [5]) it was 2.96 ± 2.3 µM; in test [3] (setting [6]), 0.637 µM; in test [3] (setting [7]), 7.56 µM; in test [3] (setting [8]) it was 0.693 µM. Besides, the “SI, selectivity index for the CB2, SI = EC50(CB1)/EC50(CB2)” value in test [3] is over 3.

Regarding `COc1ccc(C=C2SC(=O)N(C(C)C)C2=O)cc1OC(=O)c1ccccc1F` [Compound 29, 5-((3-Isopropyl-2,4-dioxothiazolidin-5-ylidene)methyl)-2-methoxyphenyl 2-Fluorobenzoate], the EC50 in test [2] and in test [3] (setting [5]) was over 10 µM throughout.

Take `COc1ccc(/C=C2\SC(=O)N(C(C)C)C2=O)cc1OC(=O)c1ccc(CCl)cc1` [Compound 30, 5-((3-Isopropyl-2,4-dioxothiazolidin-5-ylidene) Methyl)-2-methoxyphenyl 4-(Chloromethyl) Benzoate]: the EC50 in test [2] and in test [3] (setting [5]) was over 10 µM throughout.

On to `COc1ccc(C=C2SC(=O)N(C(C)C)C2=O)cc1OC(=O)C(C)(C)CCl` [Compound 31, 5-((3-Isopropyl-2,4-dioxothiazolidin-5-ylidene) Methyl)-2-methoxyphenyl 3-Chloro-2,2-dimethylpropanoate], for which the EC50 in test [2] was over 10 µM; in test [3] (setting [5]), 3.38 ± 2.15 µM; in test [3] (setting [6]), 0.814 µM; in test [3] (setting [7]), 1.68 µM; in test [3] (setting [8]) it was 7.65 µM. The “SI, selectivity index for the CB2, SI = EC50(CB1)/EC50(CB2)” value in test [3] is over 3.

With `COc1ccc(/C=C2\SC(=O)N(C(C)C)C2=O)cc1OC(=O)C12CC3CC(CC(C3)C1)C2` [Compound 32, 5-((3-Isopropyl-2,4-dioxothiazolidin-5-ylidene) Methyl)-2-methoxyphenyl (3r, 5r, 7r)-Adamantane-1-carboxylate], the EC50 in test [2] was over 10 µM; in test [3] (setting [5]), 0.83 ± 0.65 µM; in test [3] (setting [6]), 0.093 µM; in test [3] (setting [7]) it was 0.287 µM; in test [3] (setting [8]), 2.12 µM. For the same molecule, the “SI, selectivity index for the CB2, SI = EC50(CB1)/EC50(CB2)” value in test [3] is recorded as over 12.

For `CCCC(=O)Oc1cc(C=C2SC(=O)N(C(C)C)C2=O)ccc1OC` [Compound 33, 5-((3-Isopropyl-2,4-dioxothiazolidin-5-ylidene)methyl)-2-methoxyphenylbuty Rate], the EC50 in test [2] and in test [3] (setting [5]) was over 10 µM in each case.

For the molecule `COc1ccc(C=C2SC(=O)N(CC(C)C)C2=O)cc1OC(=O)C(C)(C)CCl` [Compound 34, 5-((3-Isobutyl-2,4-dioxothiazolidin-5-ylidene)methyl)-2-methoxyphenyl 3-Chloro-2,2-dimethylpropanoate], the EC50 in test [2] and in test [3] (setting [5]) was over 10 µM each time.

`COc1ccc(C=C2SC(=O)N(CC(C)C)C2=O)cc1OC(=O)c1cccc(Br)c1` [Compound 35, 5-((3-Isobutyl-2,4-dioxothiazolidin-5-ylidene)methyl)-2-methoxyphenyl 3-Bromobenzoate]: the EC50 in test [2] and in test [3] (setting [5]) was over 10 µM each time.

As for `COc1ccc(C=C2SC(=O)N(CC(C)C)C2=O)cc1OC(=O)c1ccc(CCl)cc1` [Compound 36, 5-((3-Isobutyl-2,4-dioxothiazolidin-5-ylidene)methyl)-2-methoxyphenyl 4-(Chloromethyl)benzoate], the EC50 in test [2] and in test [3] (setting [5]) was over 10 µM each time.

Regarding `COc1ccc(/C=C2\SC(=O)N(CC(C)C)C2=O)cc1OC(=O)C12CC3CC(CC(C3)C1)C2` [Compound 37, 5-((3-Isobutyl-2,4-dioxothiazolidin-5-ylidene)methyl)-2-methoxyphenyl (3r, 5r,7r)-adamantane-1-carboxylate], the EC50 in test [2] and in test [3] (setting [5]) was over 10 µM each time.

Consider `COc1ccc(C=C2SC(=O)N(C(C)C)C2=O)cc1OC(=O)CCCCl` [Compound 38, 5-((3-Isopropyl-2,4-dioxothiazolidin-5-ylidene)methyl)-2-methoxyphenyl 4-Chlorobutanoate], for which the IC50 was over 10 µM in test [4]; 0.4 ± 0.16 µM in test [1] (setting [9]); 0.715 µM in test [1] (setting [10]); 0.256 µM in test [1] (setting [11]); 0.224 µM in test [1] (setting [12]). The “SI, selectivity index for the CB2, SI = IC50(CB1)/IC50(CB2)” value in test [1] is over 25.

Turning to `CCCS(=O)(=O)Oc1cc(C=C2SC(=O)N(C(C)C)C2=O)ccc1OC` [Compound 39, 5-((3-Isopropyl-2,4-dioxothiazolidin-5-ylidene)methyl)-2-methoxyphenyl Propane-1-sulfonate], the IC50 was over 10 µM in test [4]; 0.33 ± 0.09 µM in test [1] (setting [9]); 0.445 µM in test [1] (setting [10]); 0.115 µM in test [1] (setting [11]); 0.44 µM in test [1] (setting [12]). Besides, the “SI, selectivity index for the CB2, SI = IC50(CB1)/IC50(CB2)” value in test [1] is on record as 23.
